Reference: ChEMBL document CHEMBL6109128, “Copper-KRAS-COX2 Axis: A Therapeutic Vulnerability in Pancreatic Cancer” (J Med Chem, 2025)
The source made the active and inactive calls. No cut-off for these calls is given here.

Tests used:
HCT-116 [1] = experiment: Induction of autophagy in human HCT-116 cells assessed as cell death at up to 1 uM incubated for 6 days in presence of MRT68921; format: functional, cell-based; conditions: time 6.0 day
MIA PaCa-2 [2] = experiment: Induction of apoptosis in human MIA PaCa-2 cells assessed as upregulation of caspase 9 level at 10 uM measured for 48 hrs by Western blot analysis; format: functional, cell-based
MIA PaCa-2 [3] = experiment: Induction of apoptosis in human MIA PaCa-2 cells assessed as upregulation of caspase 3 level at 10 uM measured for 48 hrs by Western blot analysis; format: functional, cell-based
HCT-116 [4] = experiment: Induction of ferroptosis in human HCT-116 cells assessed as change in GPX4 level at 5 to 10 uM incubated for 18 hrs by Western blot analysis; format: functional, cell-based; conditions: dose 5-10 µM
MIA PaCa-2 [5] = experiment: Synergistic antiproliferative activity against human MIA PaCa-2 cells assessed as inhibition of colony formation at up to 1 uM incubated for 6 days in presence of celecoxib; format: functional, cell-based; conditions: time 6.0 day
MIA PaCa-2 [6] = experiment: Induction of ferroptosis in human MIA PaCa-2 cells assessed as cell death at up to 1 uM in presence of ferrostatin-1; format: functional, cell-based
[7] = Metabolic stability in mouse liver microsome assessed as half life measured up to 60 mins by LC-MS/MS analysis; format: ADME; conditions: liver microsomes
MIA PaCa-2 [8] = experiment: Synergistic antiproliferative activity against human MIA PaCa-2 cells assessed as inhibition of colony formation at up to 0.5 uM in presence of TTM; format: functional, cell-based
MIA PaCa-2 [9] = experiment: Induction of apoptosis in human MIA PaCa-2 cells assessed as upregulation of cleaved PARP level at 10 uM measured for 48 hrs by Western blot analysis; format: functional, cell-based
[10] = AUC (0 to infinity) in CD-1 mouse at 15 mg/kg, iv measured up to 24 hrs by LC-MS/MS analysis; format: ADME, organism-based; conditions: in vivo
HCT-116 [11] = experiment: Induction of ferroptosis in human HCT-116 cells at up to 1 uM in presence of erastin; format: functional, cell-based
[12] = Half life in CD-1 mouse at 30 mg/kg, po measured up to 24 hrs by LC-MS/MS analysis; format: ADME, organism-based; conditions: in vivo
HCT-116 [13] = experiment: Synergistic antiproliferative activity against human HCT-116 cells assessed as inhibition of colony formation at up to 1 uM incubated for 6 days in presence of lumi-racoxib; format: functional, cell-based; conditions: time 6.0 day
MIA PaCa-2 [14] = experiment: Synergistic antiproliferative activity against human MIA PaCa-2 cells assessed as inhibition of colony formation at up to 0.5 uM in presence of CuSO4; format: functional, cell-based
HCT-116 [15] = experiment: Synergistic antiproliferative activity against human HCT-116 cells assessed as inhibition of colony formation at up to 1 uM in presence of CuSO4; format: functional, cell-based
HCT-116 [16] = experiment: Synergistic antiproliferative activity against human HCT-116 cells assessed as inhibition of colony formation at up to 1 uM incubated for 6 days in presence of AZD6738; format: functional, cell-based; conditions: time 6.0 day
[17] = Metabolic stability in human liver microsome assessed as half life measured up to 60 mins by LC-MS/MS analysis; format: ADME; conditions: liver microsomes
BXPC-3 [18] = experiment: Cytotoxicity against human BXPC-3 cells by MTT assay; format: functional, cell-based
HCT-116 [19] = experiment: Induction of autophagy in human HCT-116 cells assessed as cell death at up to 1 uM incubated for 6 days in presence of bafilomycin-A1; format: functional, cell-based; conditions: time 6.0 day
PANC-1 [20] = experiment: Cytotoxicity against human PANC-1 cells by MTT assay; format: functional, cell-based
Panc02 [21] = experiment: Cytotoxicity against mouse Panc02 cells harboring wild type KRAS; format: functional, cell-based
MIA PaCa-2 [22] = experiment: Induction of ferroptosis in human MIA PaCa-2 cells assessed as cell death at up to 1 uM in presence of […]; format: functional, cell-based
HCT-116 [23] = experiment: Synergistic antiproliferative activity against human HCT-116 cells assessed as inhibition of colony formation at up to 1 uM incubated for 6 days in presence of CC-115; format: functional, cell-based; conditions: time 6.0 day
MIA PaCa-2 [24] = experiment: Synergistic antiproliferative activity against human MIA PaCa-2 cells assessed as inhibition of colony formation at up to 1 uM incubated for 6 days in presence of MK-663; format: functional, cell-based; conditions: time 6.0 day
HCT-116 [25] = experiment: Synergistic antiproliferative activity against human HCT-116 cells assessed as inhibition of colony formation at up to 1 uM incubated for 6 days in presence of valdecoxib; format: functional, cell-based; conditions: time 6.0 day
MIA PaCa-2 [26] = experiment: Synergistic antiproliferative activity against human MIA PaCa-2 cells assessed as inhibition of colony formation at up to 1 uM in presence of FeCl3; format: functional, cell-based
HCT-116 [27] = experiment: Induction of ferroptosis in human HCT-116 cells assessed as cell death at up to 1 uM in presence of ferrostatin-1; format: functional, cell-based
HCT-116 [28] = experiment: Induction of necroptosis in human HCT-116 cells assessed as increase in p-RIP3 level at 10 uM incubated for 1 hr by Western blot analysis; format: functional, cell-based
HCT-116 [29] = experiment: Induction of ferroptosis in human HCT-116 cells at up to 1 uM in presence of FIN56; format: functional, cell-based
PANC-1 [30] = experiment: Synergistic antiproliferative activity against human PANC-1 cells assessed as inhibition of colony formation at up to 1 uM incubated for 6 days in presence of valdecoxib; format: functional, cell-based; conditions: time 6.0 day
BXPC-3 [31] = experiment: Synergistic antiproliferative activity against human BXPC-3 cells assessed as inhibition of colony formation at up to 1 uM incubated for 6 days in presence of valdecoxib; format: functional, cell-based; conditions: time 6.0 day
MIA PaCa-2 [32] = experiment: Induction of necroptosis in human MIA PaCa-2 cells assessed as increase in p-RIP3 level at 10 uM incubated for 1 hr by Western blot analysis; format: functional, cell-based
[33] = Oral bioavailability in CD-1 mouse at 30 mg/kg measured up to 24 hrs by LC-MS/MS analysis; format: ADME, organism-based; conditions: in vivo
[34] = Toxicity in C57BL/6 mouse assessed as body weight loss at 20 to 40 mg/kg, ip administered for 28 days; format: organism-based; conditions: in vivo, 672 h, dose 20-40 mg/kg, time 28 day
HCT-116 [35] = experiment: Induction of autophagy in human HCT-116 cells assessed as cell death at up to 1 uM incubated for 6 days in presence of chloroquine; format: functional, cell-based; conditions: time 6.0 day
BXPC-3 [36] = experiment: Cytotoxicity against human BXPC-3 cells harboring wild type KRAS; format: functional, cell-based
[37] = Cytotoxicity against mouse KPC2 cells by MTT assay; format: functional, cell-based
Panc02 [38] = experiment: Synergistic antiproliferative activity against mouse Panc02 cells harboring wild type KRAS at 0.01 to 3 uM in presence of MRTX1133; format: functional, cell-based; conditions: dose 0.01-3 µM
[39] = Volume of distribution at steady state in CD-1 mouse at 15 mg/kg, iv measured up to 24 hrs by LC-MS/MS analysis; format: ADME, organism-based; conditions: in vivo, read-out: Vdss
[40] = AUC in CD-1 mouse at 15 mg/kg, iv measured up to 24 hrs by LC-MS/MS analysis; format: ADME, organism-based; conditions: in vivo
BXPC-3 [41] = experiment: Induction of apoptosis in human BXPC-3 cells assessed as increase in clonogenic survival up to 0.5 uM incubated for 6 days in presence of Z-VAD-FMK by crystal violet staining based analysis; format: functional, cell-based; conditions: time 6.0 day
HCT-116 [42] = experiment: Synergistic antiproliferative activity against human HCT-116 cells assessed as inhibition of colony formation at up to 1 uM incubated for 6 days in presence of napabucasin; format: functional, cell-based; conditions: time 6.0 day

With `C[C@@H]1OCC2(CCN(c3cnc(C(=O)Nc4cc(F)cc5cccnc45)cn3)CC2)[C@@H]1N` the Activity (HCT-116 [1]) was “Active”, the Activity (MIA PaCa-2 [2]) was “Active” and the Activity (MIA PaCa-2 [3]) was “Active”. The Activity (HCT-116 [4]) was “Active”, the Activity (MIA PaCa-2 [5]) was “Active” and the Activity (MIA PaCa-2 [6]) was “inactive”. For the same compound, the half-life [7] was over 1 h, the Activity (MIA PaCa-2 [8]) was “Active” and the Activity (MIA PaCa-2 [9]) was “Active”. The AUC(0-inf) [10] was 6090 ng·h/mL, the Activity (HCT-116 [11]) was “Active” and the half-life [12] was 4.9 h. For the same compound, the Activity (HCT-116 [13]) was “Active”, the Activity (MIA PaCa-2 [14]) was “Active” and the Activity (HCT-116 [15]) was “Active”. For the same compound, the Activity (HCT-116 [16]) was “Active”, the half-life [17] was over 1 h and the IC50 (BXPC-3 [18]) was 8.5 µM. The Activity (HCT-116 [19]) was “Active”, the IC50 (PANC-1 [20]) was 2.9 µM and the Activity (Panc02 [21]) was “inactive”. The Activity (MIA PaCa-2 [22]) was “inactive”, the Activity (HCT-116 [23]) was “Active” and the Activity (MIA PaCa-2 [24]) was “Active”. For the same compound, the Activity (HCT-116 [25]) was “Active”, the Activity (MIA PaCa-2 [26]) was “Active” and the Activity (HCT-116 [27]) was “inactive”. The Activity (HCT-116 [28]) was “Active”, the Activity (HCT-116 [29]) was “Active” and the Activity (PANC-1 [30]) was “Active”. The Activity (BXPC-3 [31]) was “Active”, the Activity (MIA PaCa-2 [32]) was “Active” and the bioavailability [33] was 55.2%. For the same compound, the Activity [34] was “Non-toxic”, the Activity (HCT-116 [35]) was “Active” and the Activity (BXPC-3 [36]) was “inactive”. The IC50 [37] was 1.9 µM, the Activity (Panc02 [38]) was “inactive” and the Vd [39] was 7.1 L/kg. For the same compound, the AUC at 24 h [40] was 6010 ng·h/mL, the Activity (BXPC-3 [41]) was “Active” and the Activity (HCT-116 [42]) was “Active”.

In the case of `N[C@@H]1[C@H]2CN(c3cnc(C(=O)Nc4cc(F)cc5cccnc45)cn3)C[C@@H]12`, the Activity (HCT-116 [1]) is reported as “Active”, the Activity (MIA PaCa-2 [2]) is reported as “Active” and the Activity (MIA PaCa-2 [3]) is reported as “Active”. The Activity (HCT-116 [4]) was “Active”, the Activity (MIA PaCa-2 [5]) was “Active” and the Activity (MIA PaCa-2 [6]) was “inactive”. The half-life [7] was over 1 h, the Activity (MIA PaCa-2 [8]) was “Active” and the Activity (MIA PaCa-2 [9]) was “Active”. The AUC(0-inf) [10] was 3450 ng·h/mL, the Activity (HCT-116 [11]) was “Active” and the half-life [12] was 3.1 h. For the same compound, the Activity (HCT-116 [13]) was “Active”, the Activity (MIA PaCa-2 [14]) was “Active” and the Activity (HCT-116 [15]) was “Active”. The Activity (HCT-116 [16]) was “Active”, the half-life [17] was over 1 h and the IC50 (BXPC-3 [18]) was over 10 µM. For the same compound, the Activity (HCT-116 [19]) was “Active”, the IC50 (PANC-1 [20]) was 4.4 µM and the Activity (Panc02 [21]) was “inactive”. The Activity (MIA PaCa-2 [22]) was “inactive”, the Activity (HCT-116 [23]) was “Active” and the Activity (MIA PaCa-2 [24]) was “Active”. For the same compound, the Activity (HCT-116 [25]) was “Active”, the Activity (MIA PaCa-2 [26]) was “Active” and the Activity (HCT-116 [27]) was “inactive”. For the same compound, the Activity (HCT-116 [28]) was “Active”, the Activity (HCT-116 [29]) was “Active” and the Activity (PANC-1 [30]) was “Active”. The Activity (BXPC-3 [31]) was “Active”, the Activity (MIA PaCa-2 [32]) was “Active” and the bioavailability [33] was 55.3%. The Activity [34] was “Non-toxic”, the Activity (HCT-116 [35]) was “Active” and the Activity (BXPC-3 [36]) was “inactive”. The IC50 [37] was 3.4 µM, the Activity (Panc02 [38]) was “inactive” and the Vd [39] was 14.6 L/kg. For the same compound, the AUC at 24 h [40] was 3420 ng·h/mL, the Activity (BXPC-3 [41]) was “Active” and the Activity (HCT-116 [42]) was “Active”.
